Read-outs that look alike come from different tables or passages of the source. Bounds are passed on as bounds.

By LD50 is commonly meant the dose expected to kill half of the subjects tested.

In one data set the test system is triglycerides. The data set is described as follows: Antilipemic effect: percent triglycerides inhibition in plasma of rats given an olive oil-cholesterol mixture. The format is in vivo, male Wistar rats. The following applies: for inhibition in vivo at 100 mg/kg: oral 100 mg/kg, read-out: Anti-lipemic effect, TG (percent triglycerides inhibition); for inhibition in vivo at 200 mg/kg: read-out: Anti-lipemic effect, TG (percent triglycerides inhibition), asterisked. The method, then: (§1) The above compounds of this invention are tested by the following methods for antilipemic effect and acute toxicity. In the column of antilipemic effect in the table, the asterisked values indicate the effect achieved by orally giving 200 mg/kg of the compounds concerned, and the unmarked values, the effect attained by orally giving 100 mg/kg. In the same column, "TG" stands for percent triglycerides inhibition and "CS" percent cholesterol inhibition.
(§2) Seven-week-old male Wistar rats weighing 200 to 220 g are used, 5 rats in each group.
(§3) Each compound of the invention (100 mg or 200 mg) is dissolved in 10 ml of an olive oil-cholesterol mixture (containing 15% of cholesterol). The mixture containing the compound is orally given to the rat with a probe at a dose of 10 ml/kg. Two or 8 hours thereafter, 6 ml of whole blood is withdrawn from the descending aorta of the rat under ether anesthesia with a syringe containing heparin. The blood is centrifuged at 5° C. and 3000 r.p.m. to obtain the plasma. The plasma collected after the lapse of 2 hours is used for determining the triglycerides content, and the plasma obtained 8 hours later for determining the total cholesterol content, using a triglycerides measuring kit (trade mark "Triglycerides-B Test Wako," product of Wako Junyaku Co., Ltd., Japan) and a total cholesterol measuring kit (trade mark "Cholesterol Test Wako," product of the same), respectively. The olive oil-cholesterol mixture containing no compound is similarly given to a control group, while no treatment is conducted for a normal group. The triglycerides and total cholesterol contents in the plasma are also determined for these groups in the same manner as is the case with the test groups.
(§4) The present hyperlipidemia inhibition achieved by the present compound is given by [formula] in which A is the triglycerides (cholesterol) content of the control group, B is the triglycerides (cholesterol) content of the normal group, and C is the triglycerides (cholesterol) content of the group to which the present compound is given.

Another data set deals with cholesterol. The experiment in a line: Antilipemic effect: percent total cholesterol inhibition in plasma of rats given an olive oil-cholesterol mixture. The format is in vivo, male Wistar rats. As to conditions: oral 100 mg/kg, plasma 8 hours after dosing, Wistar rat; read-out: Anti-lipemic effect, CS (percent cholesterol inhibition). As for the experimental part:
as §1, §2, §3, §4

A short description of a further data set: Acute toxicity. The following applies: rat, in vivo. An excerpt: Six-week-old male Wistar rats weighing 180 to 200 g are used, 5 rats in each group. Each compound of the invention is suspended in a 30% aqueous solution of polyethylene glycol 6000 and orally given to the rat at the dosage shown in Table 2. The animals are checked for poisoning, body weight and survival to determine the LD50 value.

Where [1] appears, read: plasma 2 hours after dosing, Wistar rat.
The mark [2] stands for this setting: oral 200 mg/kg (asterisked values), plasma 2 hours after dosing, Wistar rat.
[3] abbreviates: oral, six-week-old male Wistar rats, suspended in 30% aqueous polyethylene glycol 6000, read-out: LD50.

`CCCC(=O)COS(=O)(=O)Cc1ccccc1` [Compound 4]: the values for the inhibition in vivo at 100 mg/kg with triglycerides (setting [1]) and in the data set with cholesterol were 68% and 52%, respectively.
On to `CCCCC(=O)COS(=O)(=O)c1ccccc1` [Compound 7], for which the inhibition in vivo at 100 mg/kg with triglycerides (setting [1]) is 98%; in the data set on cholesterol, 67%.
For `CC(=O)COS(=O)(=O)c1c(C)cc(C)cc1C` [Compound 71] the same measures were 60% and 82%.
Turning to `CCCCC(CC)C(=O)COS(=O)(=O)c1c(C)cc(C)cc1C` (stereo not drawn) [Compound 84], the inhibition in vivo at 100 mg/kg in the data set on triglycerides (setting [1]) came out at 59%. Moreover, in “Acute toxicity” (po), the LD50 is > 4000 mg/kg.
For `Cc1cc(C)c(S(=O)(=O)OCC(=O)CCCCCCC(C)C)c(C)c1` [Compound 85], in that order: 48% and > 4000 mg/kg.
With `C=CCCCCCCCCC(=O)COS(=O)(=O)c1c(C)cc(C)cc1C` [Compound 88], in the data set on triglycerides (setting [2]), the inhibition in vivo at 200 mg/kg was 66%. For the same compound, in “Acute toxicity” (po), the LD50 is > 4000 mg/kg.
For `CCCC(=O)COS(=O)(=O)c1c(C)c(C)cc(C)c1C` [Compound 89], in that order: 56% and > 3000 mg/kg.
For the compound `CCCCCCCC(=O)COS(=O)(=O)c1c(C)c(C)cc(C)c1C` [Compound 91], in the data set with triglycerides (setting [2]), the inhibition in vivo at 200 mg/kg was found to be 47%. Also, the LD50 in “Acute toxicity” (po) is > 3000 mg/kg.
`CCCCCCCCCCC(=O)COS(=O)(=O)c1c(C)c(C)cc(C)c1C` [Compound 92]: the inhibition in vivo at 200 mg/kg with triglycerides (setting [2]) is 43%. Further, the LD50 in the data set “Acute toxicity” (setting [3]) is > 3000 mg/kg.
As for `C=CCCC(=O)COS(=O)(=O)c1c(C)c(C)cc(C)c1C` [Compound 93], the inhibition in vivo at 200 mg/kg in the data set on triglycerides (setting [2]) stood at 60%. Besides, in the data set “Acute toxicity” (po), the LD50 is > 3000 mg/kg.
For the compound `Cc1cc(C)c(C)c(S(=O)(=O)OCC(=O)CCCCCCC(C)C)c1C` [Compound 94], the inhibition in vivo at 200 mg/kg in the data set with triglycerides (setting [2]) amounted to 51%. Moreover, the LD50 in the data set “Acute toxicity” (po) is > 3000 mg/kg.
For `CCCC(=O)COS(=O)(=O)c1cccc(C(=O)O)c1` [Compound 102] the same measures were 42% and > 3000 mg/kg.
For `CCCC(=O)COS(=O)(=O)c1ccc(NC(C)=O)cc1` [Compound 103] the same measures were 51% and > 3000 mg/kg.
For `CCCCCCCCCCCCc1ccc(S(=O)(=O)OCC(=O)CCC)cc1` [Compound 104] the same measures were 56% and > 3000 mg/kg.
With `CCCC(=O)COS(=O)(=O)c1ccccc1C1OCCO1` [Compound 105], the inhibition in vivo at 200 mg/kg with triglycerides (setting [2]) was found to be 55%. Also, the LD50 in the data set “Acute toxicity” (po) was > 3000 mg/kg.
Take `CCCC(=O)COS(=O)(=O)c1cc(Cl)ccc1Cl` [Compound 107]: in the data set on triglycerides (setting [1]), the inhibition in vivo at 100 mg/kg was determined as 75%. For the same compound, the LD50 in “Acute toxicity” (po) was > 1500 mg/kg.
For `CCCC(=O)COS(=O)(=O)c1ccc(C)c(Cl)c1` [Compound 108] the same measures were 64% and > 1500 mg/kg.
In the case of `CCCC(=O)COS(=O)(=O)c1ccc(Cl)cc1O` [Compound 109], the inhibition in vivo at 200 mg/kg with triglycerides (setting [2]) amounted to 82%. Besides, the LD50 in “Acute toxicity” (po) was > 2000 mg/kg.
On to `CCCC(=O)COS(=O)(=O)c1cc(Cl)c(Cl)cc1Cl` [Compound 113], for which, in the data set on triglycerides (setting [1]), the inhibition in vivo at 100 mg/kg is 60%. For the same compound, in the data set “Acute toxicity” (po), the LD50 was > 1500 mg/kg.
`CCCC(=O)COS(=O)(=O)c1c(C(C)C)cc(C(C)C)cc1C(C)C` [Compound 115]: in the data set on triglycerides (setting [2]), the inhibition in vivo at 200 mg/kg worked out at 67%. Also, the LD50 in the data set “Acute toxicity” (po) is > 3000 mg/kg.
For `CCCC(=O)COS(=O)(=O)c1c(C)c(C)c(C)c(C)c1C` [Compound 118] the same measures were 76% and > 3000 mg/kg.
For the compound `CCCC(=O)COS(=O)(=O)c1cc(Br)ccc1OC` [Compound 119], the inhibition in vivo at 100 mg/kg with triglycerides (setting [1]) is 67%. In addition, the LD50 in “Acute toxicity” (po) was > 2000 mg/kg.
For `CCCC(C)CC(=O)COS(=O)(=O)c1ccc(OCC)cc1` (stereo not drawn) [Compound 142] the same measures were 47% and > 4000 mg/kg.
As for `CCOc1ccc(S(=O)(=O)OCC(=O)CCC(CC)CC)cc1` [Compound 144], the inhibition in vivo at 200 mg/kg in the data set with triglycerides (Rattus norvegicus, po, 2 h) turned out to be 55%. Also, the LD50 in the data set “Acute toxicity” (setting [3]) was > 4000 mg/kg.

(Values after patent publication US4489091A, “Antilipemic and anti-inflammatory compositions containing sulfonate derivatives” (Taiho Pharmaceutical Company Limited, priority 1980, dated 1984).)
